Assay results as given in patent publication US11607422B2, “Uttroside B and derivatives thereof as therapeutics for hepatocellular carcinoma” (Rajiv Gandhi Centre for Biotechnology, an Autonomous …, priority 2016, dated 2023).
Read-outs that look alike come from different tables or passages of the source.

Tests used:
[1] = tested on: PARP and caspase 9 in HepG2 cells; assay: Western blot of PARP and caspase 9 cleavage with inhibition of autophagy; assay type: cell-based, human; conditions: for effect of autophagy inhibitor on Uttroside B-induced caspase 9 activation: HepG2, Western blot; for effect of autophagy inhibitor on Uttroside B-induced cleavage of PARP: HepG2, pretreatment with inhibitor
Protocol: Western blot analysis. Approximately 0.5×10^6 cells were grown on 60 mm culture plates and exposed to drugs as indicated for the desired time. The cells were then scraped out, washed in ice cold 1× PBS and pelleted down at 13000 rpm for 2 min. The pelleted cells were suspended in 150 μL of ice-cold whole cell lysis buffer[(20 mMTris of pH 7.4, 250 mM NaCl, 2 mM EDTA, 0.1% Triton, 1 mM DTT (1,4-dithiothreitol), 0.5 mM PMSF, 4 mM sodium orthovanadate, aprotinin (5 mg m/L) and leupeptin (5 mg m/L)] and kept in ice for 30 min, with intermittent vortexing every 5 min. After incubation, the lysate was centrifuged at 13000 rpm for 10 min at 4° C. and the supernatant was collected. The total protein content in the lysate was estimated by Bradford's method, and was then denatured by boiling with 5× loading dye before separating the proteins by SDSpolyacrylamidegel electrophoresis (SDS-PAGE). Following electrophoresis, the polyacrylamide gel and a PVDF membrane were equilibrated with Towbins buffer (1 L, 25 mM Tris, 192 mM glycine, 20% (v/v) methanol (pH 8.3) for 15-30 min and the separated proteins were electro-transferred to PVDF membrane (Hybond-P, GE Healthcare Life science) using Bio-Rad Mini PROTEAN III wet blot apparatus at 100 V for 2 h at cold conditions. After the transfer, the membrane was rinsed with TBS-T (20 mM Tris pH 7.5, 150 mM NaCl, 0.1% Tween 20) buffer and stained with Ponceau-S to ensure uniform transfer. After washing off the Ponceau stain with TBST, the membrane was exposed to 5% fat free milk in TBST buffer for 1 h at room temperature to block the nonspecific binding of antibodies, followed by overnight incubation with the primary antibody [1:1000 dilution] in 3% BSA in TBST buffer at 4° C. Excess antibody was washed off with TBST buffer and incubated with corresponding secondary antibody [1:5000 dilution] coupled with horse radish peroxidase (HRP) in 5% fat free milk in TBST buffer. The bands were visualized using enhanced chemiluminescence kit (Millipore, St Charles, Mo., United States) following manufacturer's protocol.
HepG2 was transiently transfected with Beclin siRNA and control siRNA using Lipofectamine LTX Plus reagent kit according to manufacturer's protocol (Invitrogen, USA). 0.35×10^6cells per well were seeded in a six well tissue culture plate containing 2 ml antibiotic-free normal growth medium supplemented with FBS and the cells were incubated to attain 60% confluency. Beclin siRNA duplex solution (Solution A) was added directly to the dilute transfection reagent (LP LTX plus reagent) (Solution B). The solution was mixed gently by pipetting up and down and incubated for 45 minutes at room temperature. The cells were washed gently with 2 ml of transfection medium (optiMEM medium). […]

HepG2 cells [2] = assay: MTT assay of Uttroside B with autophagy inhibitor; assay type: cell-based, human; conditions: 3 MA 1 mM, 72 h
U937 leukemia cell line = conditions: literature ref 14; read-out: IC50, cytotoxicity against U937 leukemia cell line; cited from earlier work
HepG2 cells [3] = conditions: literature ref 14; read-out: IC50 against HepG2 cells; cited from earlier work
[4] = literature ref 9; cell line not stated; cited from earlier work
LC3 in HepG2 cells = assay: Autophagy flux (LC3I to LC3II conversion) with Bafilomycin; assay type: cell-based, human; conditions: HepG2, LC3 II accumulation
Protocol: Concentration dependent effect of BafilomycinAl on the endogenous conversion of LC3I to LC3II in HepG2 cells. Cells were treated with Bafilomycin Al at different concentration and the whole cell lysate was resolved on a 15% gel and immunoblotted against LC3 antibody. Uttroside B is an autophagy inducer in HepG2 cells as analysed by autophagy flux using Bafilomycin Al. […] The increase in LC3 II could not be considered as a fool proof of autophagic induction because a blockage in any step leading from autophagosome maturation to its fusion with lysosomes could cause its accumulation. So, the effect of Uttroside B in HepG2 cells were analyzed for autophagy flux, a more accurate read out of autophagy on co-treatment with Bafilomycin, an autophagy-lysosome inhibitor. Bafilomycin A, blocks autophagy by blocking the fusion of autophagosome with lysosome which cause the accumulation of autophagosome or LC3. First, the concentration of Bafilomycin Al required for saturating the blockage of autophagy-lysosome fusion was standardized. The efficacy of Bafilomycin Al, in terms of blocking autophagosome degradation in HepG2, was found peaked at 10 nM, beyond which no further accumulation of LC3 II was noted, which matched with the earlier reports.^32,37,38 […]

[5] = literature refs 3, 25; cited from earlier work
human cancer cells = conditions: literature ref 22; cited from earlier work
HepG2 cells [6] = assay: Cell cycle analysis by flow cytometry (propidium iodide); assay type: cell-based, human; conditions: HepG2, 25 μM, 24 h
Protocol: FIGS. 3A-3F show Uttroside B induces caspase-dependent apoptosis leading to PARP cleavage in HepG2 cells while being independent of cell cycle. FIGS. 3A-3E are images of Western blots showing caspase activation in HepG2 cells. Whole-cell extracts were prepared after treating HepG2 cells with indicated concentrations of Uttroside B for 48 h, the whole cell lysate was resolved on a 15% gel and subjected to western blotting using antibodies against the caspases 8, 9 & 7 detected by ECL. HepG2 cells were treated with Uttroside B for 48 h at different concentrations and the whole cell lysate was resolved on a 10% gel, immunoblotted against anti-PARP and detected by ECL. […] HepG2 cells were treated with Uttroside B for 48 h, stained with propidium iodide and the cell cycle analysis was done using fluorescence activated cell sorter. Curcumin 25 μM (24 h) is used as positive control.
Flow cytometry: Cell cycle analysis helps in distinguishing the distribution of a population of cells to the different stages of the cycle. Cell cycle analysis using flow cytometry was performed to investigate the cell cycle arrest induced by Uttroside B. Cell cycle analysis is performed by quantitative measurement of nuclear DNA content in a cell by staining DNA with propidium iodide. […]

HepG2 cells [7] = assay: MTT cell viability assay in HepG2 cells; assay type: cell-based, human; conditions: Homo sapiens, HepG2, 72 h, read-out: IC50, cytotoxicity towards HepG2 cells
Protocol: Stocks of crude extracts and isolated compound of S. nigrum was prepared in DMSO for the in vitro studies and stored at −20° C. The DMSO concentration in all studies, including controls, was ≤0.2%. Cell viability assay was performed after 72 h of drug treatment while whole cell lysate preparation and cell cycle analysis were done after 24 h and 48 h of drug treatment. For studying NF-κB and AP-1, Uttroside B was incubated for 2 h before extraction.
MTT [3-(4,5-dimethylthiazole-2-yl)-2,5-diphenyltetrazolium bromide] assay is a standard colorimetric assay, suitable for analyzing proliferation, viability, and cytotoxicity. Briefly, the HepG2 cells were seeded in 96-well plates (2000 cells/well). […] Fresh media containing 25 μL of MTT solution (5 mg/mL in PBS) and 75 μL of complete medium was added to the wells and incubated for 2 h. At the end of incubation, lysis buffer (20% sodium dodecyl sulphate in 50% dimethyl formamide)was added to the wells (0.1 mL/well) and incubated for another 1 h at 37° C. At the end of incubation, the optical density was measured at 570 nm using ELISA plate reader (Bio-Rad). The relative cell viability in percentage was calculated as (A570 of treated samples/A570 of untreated samples)×100. The IC50 values were extrapolated from polynomial regression analysis of study data.^17

hepatocellular carcinoma = conditions: cited from earlier work

Cn1cnc(N)c2ncnc1-2 [3-MA]
effect of autophagy inhibitor on Uttroside B-induced caspase 9 activation [1]: enhanced
effect of autophagy inhibitor on Uttroside B-induced cleavage of PARP [1]: enhanced
effect of autophagy inhibitor on Uttroside B-induced cytotoxicity (HepG2 cells [2]): significantly enhanced

C[C@H](CC[C@@]1(O)O[C@H]2C[C@H]3[C@@H]4CC[C@H]5C[C@@H](O[C@@H]6O[C@H](CO)[C@H](O[C@@H]7O[C@H](CO)[C@@H](O)[C@H](O[C@@H]8OC[C@@H](O)[C@H](O)[C@H]8O)[C@H]7O[C@@H]7O[C@H](CO)[C@H](O)[C@H](O)[C@H]7O)[C@H](O)[C@H]6O)CC[C@]5(C)[C@H]4CC[C@]3(C)[C@H]2[C@@H]1C)CO[C@@H]1O[C@H](CO)[C@@H](O)[C@H](O)[C@H]1O [Parvispinoside B]
IC50 (U937 leukemia cell line): 0.5 µM
IC50 (HepG2 cells [3]): > 100 µM

C[C@@H]1CC[C@@]2(OC1)O[C@H]1C[C@H]3[C@@H]4CC[C@H]5C[C@@H](O[C@@H]6O[C@H](CO)[C@H](O[C@@H]7O[C@H](CO)[C@@H](O)[C@H](O[C@@H]8OC[C@@H](O)[C@H](O)[C@H]8O)[C@H]7O[C@@H]7O[C@H](CO)[C@@H](O)[C@H](O)[C@H]7O)[C@H](O)[C@H]6O)CC[C@]5(C)[C@H]4CC[C@]3(C)[C@H]1[C@@H]2C [Degalactotigonin]
cytotoxicity [4]: 0.25 µM

CO/C1=C\C(C)=C\[C@@H](C)[C@@H](O)[C@@H](C)C/C(C)=C/C=C/[C@H](OC)[C@@H]([C@@H](C)[C@@H](O)[C@H](C)[C@@]2(O)C[C@@H](O)[C@H](C)[C@@H](C(C)C)O2)OC1=O [Bafilomycin Al]
effect of autophagy inhibitor on Uttroside B-induced caspase 9 activation [1]: enhanced
effect of autophagy inhibitor on Uttroside B-induced cleavage of PARP [1]: enhanced
concentration at which blocking of autophagosome degradation peaked (LC3 in HepG2 cells): 10 nM

C[C@@H]1CC[C@@]2(OC1)O[C@H]1C[C@H]3[C@@H]4CC=C5C[C@@H](O)CC[C@]5(C)[C@H]4CC[C@]3(C)[C@H]1[C@@H]2C [diosgenin]
effect on cell cycle [5]: block cell cycle in G0/G1 phase

C[C@@H]1CC[C@@]2(OC1)O[C@H]1C[C@H]3[C@@H]4CC[C@@H]5C[C@@H](O)CC[C@]5(C)[C@H]4CC[C@]3(C)[C@H]1[C@@H]2C [smilagenin]
effect on cell cycle [5]: block cell cycle in G0/G1 phase

C[C@H]1CC[C@@]2(OC1)O[C@H]1C[C@H]3[C@@H]4CC[C@@H]5C[C@@H](O)C[C@@H](O[C@@H]6OC[C@@H](O)[C@H](O)[C@H]6O[C@@H]6O[C@@H](C)[C@H](O)[C@@H](O)[C@H]6O)[C@]5(C)[C@H]4CC[C@]3(C)[C@H]1[C@@H]2C [RCE-4, (1β,3β,5β,25S)-spirostan-1,3-diol1-[α-L-rhamnopyranosyl-(1→2)-β-Dxylopyranoside]]
growth inhibition and apoptosis (human cancer cells): induce growth inhibition and apoptosis in human cancer cells

C[C@@H]1CC[C@@]2(OC1)O[C@H]1C[C@H]3[C@@H]4CC[C@H]5C[C@@H](O)CC[C@]5(C)[C@H]4CC[C@]3(C)[C@H]1[C@@H]2C [tigogenin]
effect on cell cycle [5]: no effect on cell cycle

COc1cc(/C=C/C(=O)CC(=O)/C=C/c2ccc(O)c(OC)c2)ccc1O [curcumin, reference compound]
effect on cell cycle (positive control) (HepG2 cells [6]): readily induced cell cycle arrest at G2/M

CNC(=O)c1cc(Oc2ccc(NC(=O)Nc3ccc(Cl)c(C(F)(F)F)c3)cc2)ccn1 [sorafenib]
IC50 (HepG2 cells [7]): 5.8 µM
prolongation of survival rate (hepatocellular carcinoma; HCC patients): up to 20%
side effects (hepatocellular carcinoma; reported): severe side effects
